Reference: PMC7663372, “Brain Distribution of Dual ABCB1/ABCG2 Substrates Is Unaltered in a Beta-Amyloidosis Mouse Model” (International Journal of Molecular Sciences, 2020)
pIC50: −log10 of the molar value. Like-named read-outs stand apart in the source and are kept apart here.

Assays:
ABCG2 at the mouse BBB [1] = molecular target: T1, ABCG2 at the mouse BBB (Mus musculus, UniProt Q7TMS5); set-up: Two PET imaging approaches for assessing the activity of ABCG2 at the mouse BBB were performed; from tissue; host or cells: blood-brain barrier (brain capillary endothelium) of living female APP/PS1-21 and wild-type C57BL/6J mice; method as in PMID 22828996; conditions: Abcb1a/b(-/-) mice pretreated with 15 mg/kg Ko143; cited from earlier work
T1 sequence (Q7TMS5 1-657): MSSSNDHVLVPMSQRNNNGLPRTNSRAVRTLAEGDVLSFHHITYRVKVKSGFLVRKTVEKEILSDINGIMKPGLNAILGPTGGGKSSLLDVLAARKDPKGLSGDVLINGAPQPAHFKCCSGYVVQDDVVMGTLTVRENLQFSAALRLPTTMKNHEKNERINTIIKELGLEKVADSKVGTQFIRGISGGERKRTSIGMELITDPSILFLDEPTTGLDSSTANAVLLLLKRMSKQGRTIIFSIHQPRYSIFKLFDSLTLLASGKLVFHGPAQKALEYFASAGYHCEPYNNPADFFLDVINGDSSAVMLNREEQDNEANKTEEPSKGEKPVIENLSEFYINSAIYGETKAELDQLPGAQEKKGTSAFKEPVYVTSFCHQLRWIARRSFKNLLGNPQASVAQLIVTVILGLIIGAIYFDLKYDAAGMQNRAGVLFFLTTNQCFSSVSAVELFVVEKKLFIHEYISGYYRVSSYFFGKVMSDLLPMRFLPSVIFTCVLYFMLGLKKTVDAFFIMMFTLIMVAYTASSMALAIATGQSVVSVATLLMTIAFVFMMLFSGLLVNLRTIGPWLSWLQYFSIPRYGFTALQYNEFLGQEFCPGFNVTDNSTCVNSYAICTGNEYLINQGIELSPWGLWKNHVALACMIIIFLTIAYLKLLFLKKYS

ABCG2 at the mouse BBB [2] = molecular target: T1, ABCG2 at the mouse BBB; conditions: for percentage increase in Kp,brain following ABCG2 inhibition: Ko143 5 mg/kg vs vehicle, tariquidar 12 mg/kg, hippocampus, cortex; for change in Kp,brain after partial ABCG2 inhibition: Ko143 5 mg/kg
ABCB1 [3] = test system: ABCB1; set-up: method as in PMID 26940368; conditions: read-out: IC50 for in vitro inhibition of its own transport by ABCB1; cited from earlier work
ABCG2 = test system: ABCG2; set-up: method as in PMID 26940368; conditions: read-out: IC50 for in vitro inhibition of its own transport by ABCG2; cited from earlier work
ABCB1 [4] = conditions: cited from earlier work
ABCB1 [5] = conditions: cited from earlier work; remark: listed apart in the source
ABCB1 at the BBB = conditions: cited from earlier work

In the case of `COc1cc2c(cc1OC)CN(CCc1ccc(NC(=O)c3cc(OC)c(OC)cc3NC(=O)c3cnc4ccccc4c3)cc1)CC2` [[^11C]tariquidar], the “maximum brain uptake, Kp,brain” value (ABCG2 at the mouse BBB [1]) is given as “approximately 15”, the “percentage increase in Kp,brain following ABCG2 inhibition” value (ABCG2 at the mouse BBB [2]; APP/PS1-21 mice, cerebellum) is given as 36–52% and the “change in Kp,brain after partial ABCG2 inhibition” value (ABCG2 at the mouse BBB [2]; cerebellum, APP/PS1-21 mice) is given as “significantly increased”. The “change in Kp,brain after partial ABCG2 inhibition” value (ABCG2 at the mouse BBB [2]; cerebellum, wild-type mice) was “not in wild-type mice”, the “change in Kp,brain after partial ABCG2 inhibition” value (ABCG2 at the mouse BBB [2]; hippocampus and cortex, both mouse strains) was “significantly higher” and the “percentage increase in Kp,brain following ABCG2 inhibition” value (ABCG2 at the mouse BBB [2]; wild-type mice, cerebellum) was 26–41%.

In the case of `COc1cc2c(cc1OC)CN(CCc1ccc(NC(=O)c3cc(OC)c(OC)cc3NC(=O)c3cnc4ccccc4c3)cc1)CC2` [tariquidar], the pIC50 (ABCB1 [3]) is given as 7.77 and the pIC50 (ABCG2) is given as 6.51.

In the case of `CN(C)C(=O)C(CCN1CCC(O)(c2ccc(Cl)cc2)CC1)(c1ccccc1)c1ccccc1` [loperamide], the “change in brain distribution in triple transgenic AD mice (APPswe, PS-1M146V, tauP301L)” value (ABCB1 [4]) is listed as “no changes”.

In the case of `Cc1nc2n(c(=O)c1CCN1CCC(c3noc4cc(F)ccc34)CC1)CCCC2O` (stereo not drawn) [paliperidone], the “difference in Kp,uu,brain between tg-APPArcSwe and age-matched control mice” value (ABCB1 [5]) is listed as “no differences”.

For `CNC(=O)C(CCN1CCC(O)(c2ccc(Cl)cc2)CC1)(c1ccccc1)c1ccccc1` [[^11C]N-desmethyl-loperamide], the “increase in brain distribution relative to wild-type mice” value (ABCB1 at the BBB; heterozygous Abcb1a/b(+/-) knockout mice) is given as 1.1 fold and the “increase in brain distribution relative to wild-type mice” value (ABCB1 at the BBB; homozygous Abcb1a/b(-/-) knockout mice) is given as 2.8 fold.
